{"source": "patent US11439148B2", "about": "“Pyrimidine derivatives” (SYNGENTA PARTICIPATIONS AG, priority 2017, dated 2022)", "assay_type_in_all_cases": "in vivo", "key": {"[1]": {"test_system": "Commelina benghalensis (COMBE)", "experiment": "Adjuvant efficacy with mesotrione, glasshouse spray test", "details": "mesotrione SC, mean over 30 and 60 g/ha and 3 replicates; adjuvant 0.2% v/v (none in No Adjuvant rows); % leaf area killed, 21 days after application; Tests 2 and 4"}, "[2]": {"test_system": "weed species BRAPL, COMBE, DIGSA, POLCO", "experiment": "Adjuvant efficacy with mesotrione, glasshouse spray test, average over all species (BRAPL set)", "details": "mesotrione SC, mean over 30 and 60 g/ha, adjuvant 0.2% v/v (none in No Adjuvant rows), 21 days, Test 4, average of BRAPL", "method": "The efficacy of adjuvants 1-12 as an adjuvant for the herbicide mesotrione was tested in a glasshouse against four weed species sown into standard soil in pots and cultivated under controlled conditions in a glasshouse (at 24/18° C. day/night; 16 hours light; 65% humidity). Mesotrione was added to the spray tank as a standard SC (suspension concentrate) formulation.\nThe spray tests were also carried out using mesotrione in conjunction with adjuvants 1-12. The adjuvants were added to the spray solution at a rate of 0.2% v/v unless otherwise stated. All spray solutions also contained 10% w/w of iso-Propanol. The weed species and their BBCH growth stage at spraying were Brachiaria platyphylla (BRAPP; growth stage 13-14) or Brachiaria plantaginea (BRAPL; growth stage 13-14), Commelina benghalensis (COMBE; growth stage 13), Digitaria sanguinalis (DIGSA; growth stage 14), and Polygonum convolvulus (POLCO; growth stage 13-14). Each spray test was replicated three times.\nThe test plants were then grown in a glasshouse under controlled conditions (at 24/18° C. day/night; 16 hours light; 65% humidity) and watered twice a day. The efficacy of the herbicide was assessed visually and expressed as a percentage of the leaf area killed. Samples were assessed at a time period of 21 days following application. […]"}, "[3]": {"test_system": "Brachiaria plantaginea (BRAPL)", "experiment": "Adjuvant efficacy with mesotrione, glasshouse spray test", "details": "mesotrione SC, mean over 30 and 60 g/ha and 3 replicates; adjuvant 0.2% v/v (none in No Adjuvant rows); % leaf area killed, 21 days after application; Test 4"}}, "note": "“And” between values parts separate entries of the source, which are not always exact repeats. Equal entries are not always repeated."}
{"compound": "CCCCCCCCCCCCOc1cc(OCCOCCOCCOCCOCCOCCOCCOC)ncn1", "note": "[Adjuvant 6]", "values": [{"measurement": "Mean % Herbicidal Activity COMBE", "setting": "[1]", "value": 83, "unit": "%"}]}
{"compound": "CCCCCCCCCCCCCCCCOc1cc(OCCOCCOCCOCCOCCOCCOCCOCCOCCOCCOC)ncn1", "note": "[Adjuvant 8]", "values": [{"measurement": "Mean % Herbicidal Activity Average over all Species", "setting": "[2]", "value": 72, "unit": "%"}, {"measurement": "Mean % Herbicidal Activity COMBE", "setting": "[1]", "value": "85% and 79%"}, {"measurement": "Mean % Herbicidal Activity BRAPL", "setting": "[3]", "value": 33, "unit": "%"}]}
